± gives the standard deviation of the averaged measurements.
How the values were obtained:
[1] = tested on: Homo sapiens (human subject panel, olfactory perception); experiment: perceived odor pleasantness rating (rating 0-100); higher = more pleasant
Outline: (§1)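 55 healthy human subjects (aged 18–50; six lowest performers excluded) sniffed 1 mL of each molecule diluted in paraffin oil, at high and low concentrations, in randomized order across ten visits of 100 stimuli. Subjects who reported smelling the stimulus rated it on a computerized slider starting at 50, which had to be moved; positions were converted to a 0–100 scale. Familiarity, intensity and pleasantness ratings are averages over subjects.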

[2] = tested on: Homo sapiens (human subject panel, olfactory perception); experiment: perceived odor intensity rating (rating 0-100); higher = stronger perceived smell
Outline: as §1

[3] = tested on: Homo sapiens (human subject panel, olfactory perception); experiment: perceived odor familiarity rating (rating 0-100); higher = more familiar
Outline: as §1

[4] = odor dilution in paraffin oil: 1/100,000
[5] = odor dilution in paraffin oil: 1/10,000,000
[6] = odor dilution in paraffin oil: 1/1,000
[7] = odor dilution in paraffin oil: 1/10

| Compound | perceived odor pleasantness rating [1, 4] | perceived odor pleasantness rating [1, 5] | perceived odor intensity rating [2, 4] | perceived odor intensity rating [2, 5] | perceived odor familiarity rating [3, 4] | perceived odor familiarity rating [3, 5] | perceived odor pleasantness rating [1, 6] | perceived odor intensity rating [2, 6] | perceived odor familiarity rating [3, 6] | perceived odor pleasantness rating [1, 7] | perceived odor intensity rating [2, 7] | perceived odor familiarity rating [3, 7] |
| --- | --- | --- | --- | --- | --- | --- | --- | --- | --- | --- | --- | --- |
| COC(=O)CCSC [Methyl 3-(methylthio)propionate] | 41 ± 21 | 43.2 ± 26 | 25.6 ± 28 | 27.7 ± 30 | 31 ± 25 | 40.3 ± 32 |  |  |  |  |  |  |
| COC(=O)CSC [Methyl (methylthio)acetate] | 37.7 ± 27 |  | 37.8 ± 31 |  | 38.9 ± 32 |  | 17.9 ± 24 | 81.7 ± 16 | 45.8 ± 30 |  |  |  |
| CCC(=O)OC [Methyl Propionate] | 55.7 ± 20 |  | 19 ± 23 |  | 32.6 ± 29 |  | 55.8 ± 27 | 38.7 ± 31 | 48.6 ± 31 |  |  |  |
| COC(=O)c1ccccc1N [Methyl anthranilate] | 64 ± 25 |  | 58.3 ± 30 |  | 56.7 ± 30 |  | 65.3 ± 24 | 74.6 ± 18 | 61.8 ± 31 |  |  |  |
| CC(=O)c1ccc2ccccc2c1 [Methyl beta-naphthyl ketone] |  |  |  |  |  |  | 60.7 ± 25 | 63.8 ± 26 | 62.6 ± 27 | 54.4 ± 30 | 78.8 ± 16 | 58 ± 30 |
| CCCC(=O)OC [Methyl butyrate] | 27.8 ± 25 |  | 42.8 ± 30 |  | 45.1 ± 32 |  | 32.9 ± 31 | 79.2 ± 19 | 48.2 ± 29 |  |  |  |
| CCCCCCCC(=O)OC [Methyl caprylate] | 50.1 ± 26 |  | 40.6 ± 29 |  | 40.5 ± 26 |  | 68.5 ± 23 | 47.9 ± 33 | 46.9 ± 32 |  |  |  |
| CCCCCCC(=O)OC [Methyl heptanoate] | 53 ± 24 |  | 21.7 ± 28 |  | 39.5 ± 30 |  | 58.8 ± 25 | 52.9 ± 30 | 48.9 ± 33 |  |  |  |
| C=C(C)C(=O)OC [Methyl methacrylate] | 47.4 ± 26 |  | 15.1 ± 22 |  | 37 ± 26 |  | 39.3 ± 25 | 55 ± 33 | 45.7 ± 28 |  |  |  |
| COC(=O)c1cccnc1 [Methyl nicotinate] |  |  |  |  |  |  | 38.3 ± 24 | 63 ± 26 | 43.5 ± 30 | 38.4 ± 29 | 71.6 ± 28 | 37.2 ± 30 |
| CCCCCCCCC(=O)OC [Methyl nonanoate] | 57.9 ± 24 |  | 28.8 ± 30 |  | 45.9 ± 30 |  | 57.8 ± 26 | 57 ± 28 | 50.8 ± 30 |  |  |  |
| COC(=O)Cc1ccccc1 [Methyl phenylacetate] | 42.3 ± 28 |  | 58.1 ± 30 |  | 49.6 ± 30 |  | 42.9 ± 30 | 69.1 ± 25 | 54 ± 30 |  |  |  |
| CS(C)(=O)=O [Methyl sulfone] |  |  |  |  |  |  | 47.6 ± 20 | 22.7 ± 25 | 39.4 ± 28 | 61.1 ± 24 | 42.4 ± 32 | 51.6 ± 29 |
| C[S+](C)[O-] [Methyl sulfoxide] |  |  |  |  |  |  | 32.1 ± 26 | 35.3 ± 31 | 41.6 ± 29 | 36.7 ± 24 | 50.7 ± 30 | 41.7 ± 33 |
| CCCC(=O)SC [Methyl thiobutyrate] | 16.2 ± 22 |  | 69.8 ± 26 |  | 45.1 ± 32 |  | 4.96 ± 12 | 92.4 ± 14 | 50.2 ± 36 |  |  |  |
| CCCCCC/C=C/C(=O)OC [Methyl trans-2-nonenoate] | 56.4 ± 17 |  | 20.3 ± 22 |  | 37.1 ± 26 |  | 50.3 ± 27 | 49.1 ± 27 | 53.4 ± 27 |  |  |  |
| CCCCC(=O)OC [Methyl valerate] | 48.8 ± 28 |  | 49.4 ± 30 |  | 46.1 ± 28 |  | 42.4 ± 31 | 65.2 ± 26 | 55.1 ± 31 |  |  |  |
| CC1CCC(=O)C1=O (stereo not given) [Methylcyclopentenolone] |  |  |  |  |  |  | 44.6 ± 30 | 72 ± 26 | 52.5 ± 34 | 35.8 ± 32 | 84.7 ± 18 | 63 ± 33 |

| Compound | perceived odor pleasantness rating [1, 4] | perceived odor pleasantness rating [1, 5] | perceived odor intensity rating [2, 4] | perceived odor intensity rating [2, 5] | perceived odor familiarity rating [3, 4] | perceived odor familiarity rating [3, 5] | perceived odor pleasantness rating [1, 6] | perceived odor intensity rating [2, 6] | perceived odor familiarity rating [3, 6] | perceived odor pleasantness rating [1, 7] | perceived odor intensity rating [2, 7] | perceived odor familiarity rating [3, 7] |
| --- | --- | --- | --- | --- | --- | --- | --- | --- | --- | --- | --- | --- |
| CCCCCCCC(=O)OCCCCC [N-Amyl octanoate] | 58.8 ± 24 |  | 19.5 ± 28 |  | 25.1 ± 28 |  | 48.4 ± 23 | 37.1 ± 26 | 42.3 ± 27 |  |  |  |
| CC(C)=CCC/C(C)=C\CO [Nerol] | 48.8 ± 28 |  | 24.3 ± 27 |  | 39.8 ± 33 |  | 61.4 ± 24 | 71.1 ± 22 | 60.3 ± 30 |  |  |  |
| COc1ccc2ccccc2c1 [Nerolin Yara Yara] |  |  |  |  |  |  | 61.6 ± 26 | 71.5 ± 22 | 58 ± 26 | 54.3 ± 29 | 82.7 ± 15 | 59.7 ± 28 |
| CC(=O)OC/C=C(/C)CCC=C(C)C [Neryl acetate] |  |  |  |  |  |  | 43 ± 18 | 14.7 ± 20 | 35.6 ± 28 | 49.9 ± 26 | 67.2 ± 26 | 49.1 ± 28 |
| CCCCCCCCCOC(C)=O [Nonyl acetate] |  |  |  |  |  |  | 39.9 ± 19 | 37.1 ± 28 | 39 ± 30 | 34.1 ± 27 | 77.8 ± 18 | 46.8 ± 29 |
| CC(=O)OCCC1=CCC2CC1C2(C)C (stereo not given) [Nopol acetate] | 66.6 ± 25 |  | 40.7 ± 28 |  | 52.7 ± 31 |  | 70.6 ± 21 | 53.6 ± 29 | 54.9 ± 30 |  |  |  |
| CCCCCCCC [Octane] |  |  |  |  |  |  | 44.1 ± 25 | 13.9 ± 20 | 27.3 ± 26 | 53.2 ± 25 | 59.6 ± 31 | 46.3 ± 29 |
| CCCCCCCC(=O)O [Octanoic acid] | 35.2 ± 20 |  | 49.5 ± 33 |  | 45.3 ± 32 |  | 26.6 ± 19 | 68.6 ± 26 | 52.1 ± 33 |  |  |  |
| CCCCCCCCOC(=O)C(C)C [Octyl isobutyrate] | 53.4 ± 20 |  | 17.7 ± 20 |  | 36 ± 31 |  | 55.8 ± 21 | 29.9 ± 26 | 38.9 ± 27 |  |  |  |
| CCCCCCCCOC(=O)CC(C)C [Octyl isovalerate] | 54.1 ± 21 |  | 23.4 ± 28 |  | 38.3 ± 33 |  | 39.4 ± 22 | 28.9 ± 33 | 35.1 ± 30 |  |  |  |
| O=C1CCCCCCCCCCCCCCO1 [Omega-Pentadecalactone] |  |  |  |  |  |  | 54.1 ± 23 | 23 ± 29 | 32 ± 24 | 73.5 ± 19 | 57 ± 27 | 58.9 ± 28 |
| O=C(OCCc1ccccc1)c1ccco1 [Phenethyl 2-furoate] | 50.6 ± 24 |  | 24.1 ± 30 |  | 40.5 ± 34 |  | 58.7 ± 25 | 44.8 ± 31 | 52.4 ± 37 |  |  |  |
| CC(=O)OCCc1ccccc1 [Phenethyl acetate] | 56.9 ± 24 |  | 38.2 ± 32 |  | 52.2 ± 34 |  | 54.9 ± 28 | 62.1 ± 28 | 59.1 ± 32 |  |  |  |
| Nc1ccccc1C(=O)OCCc1ccccc1 [Phenethyl anthranilate] |  |  |  |  |  |  | 48.2 ± 19 | 15.1 ± 20 | 27.7 ± 23 | 56.9 ± 24 | 39.9 ± 32 | 50.1 ± 32 |
| O=C(OCCc1ccccc1)c1ccccc1 [Phenethyl benzoate] |  |  |  |  |  |  | 49.4 ± 17 | 19.6 ± 22 | 24.1 ± 21 | 53.6 ± 24 | 38 ± 27 | 47.1 ± 31 |
| O=C(Cc1ccccc1)OCCc1ccccc1 [Phenethyl phenylacetate] | 52.9 ± 23 |  | 17.2 ± 24 |  | 31.6 ± 32 |  | 53.4 ± 23 | 42.5 ± 33 | 32.8 ± 26 |  |  |  |
| CCC(=O)OCCc1ccccc1 [Phenethyl propionate] | 52.6 ± 25 |  | 26.4 ± 27 |  | 51.1 ± 30 |  | 54.6 ± 27 | 49.9 ± 34 | 54.6 ± 32 |  |  |  |
